Laboratory results taken from patent US8143243B2, “Compounds for the treatment of hepatitis C” (Bristol-Myers Squibb Company, priority 2007, dated 2012).
Read-outs that look alike come from different tables or passages of the source.

Experiments:
[1] = biological target: T1, HCV NS5B (Hepatitis C virus genotype 1b, UniProt Q9WMX2); experiment: HCV NS5B RdRp enzyme assay (standard / modified); assay type: biochemical; conditions: HCV RdRp genotype 1b enzyme; read-out: IC50
T1 construct: The protein was expressed with an 18 amino acid C-terminal truncation to enhance the solubility; made in house; host or cells: E. coli BL21 (DE3)
T1 sequence (Q9WMX2 2420-2992): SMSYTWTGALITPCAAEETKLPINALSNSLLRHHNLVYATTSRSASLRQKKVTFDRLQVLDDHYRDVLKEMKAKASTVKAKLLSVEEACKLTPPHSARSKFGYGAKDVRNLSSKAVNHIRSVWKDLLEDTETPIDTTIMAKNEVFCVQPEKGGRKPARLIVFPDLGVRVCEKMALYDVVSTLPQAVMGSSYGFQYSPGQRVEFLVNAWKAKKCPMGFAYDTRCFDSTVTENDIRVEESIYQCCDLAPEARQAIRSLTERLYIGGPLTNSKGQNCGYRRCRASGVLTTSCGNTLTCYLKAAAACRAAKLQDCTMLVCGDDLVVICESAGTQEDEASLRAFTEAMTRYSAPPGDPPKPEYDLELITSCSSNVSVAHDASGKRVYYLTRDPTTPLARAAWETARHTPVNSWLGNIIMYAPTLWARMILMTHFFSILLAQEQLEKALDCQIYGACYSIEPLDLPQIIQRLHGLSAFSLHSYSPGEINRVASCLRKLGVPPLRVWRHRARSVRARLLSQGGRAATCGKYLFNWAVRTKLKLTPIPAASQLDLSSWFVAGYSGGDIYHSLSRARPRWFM
In short: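 SPA detection of 3H-UTP (0.29 μM) incorporation by C-terminally truncated (18 aa) genotype 1b NS5B from E. coli, on polyA/biotin-oligo-dT12 at 30° C, pH 7.5 Hepes, 2% DMSO. Modified format: 14 nM enzyme, 0.2 nM template, 20 nM primer prebound to beads, 4 h; standard: 28 nM, 6 nM, 180 nM free primer, 60 min. Seven-point IC50 fit.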

[2] = test system: HCV replicon cells; experiment: HCV replicon FRET / luciferase assay; assay type: cell-based; conditions: HCV replicon cells, FRET or luciferase readout, read-out: EC50
In short: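 HCV replicon cells (with or without Renilla luciferase reporter) were plated with titrated compounds at 37 °C. After Alamar blue toxicity reading, cells were lysed in reagent containing 20 μM EDANS/DABCYL NS3 protease FRET peptide and 150 mM NaCl, read kinetically at 340/490 nm, or assayed by Dual-Glo luciferase.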

Compound	IC50 [1] [nM]	EC50 ([2]; Hepatitis C virus) [nM]	EC50 [2] [nM]
CCN(CC)C(=O)c1sccc1C1=Cc2cc(OC)ccc2-c2c(C3CCCCC3)c3ccc(C(=O)NS(=O)(=O)N(C)C)cc3n2C1	1 to 500	1 to 500	
COc1ccc2c(c1)C=C(c1c(C(=O)N3CCN4CCCC4C3)cnn1C)Cn1c-2c(C2CCCCC2)c2ccc(C(=O)NS(=O)(=O)N3CCOCC3)cc21 (stereo not drawn)	1 to 500	1 to 500	
COc1ccc2c(c1)C=C(c1c(C(=O)N3CCN4CCC3CC4)cnn1C)Cn1c-2c(C2CCCCC2)c2ccc(C(=O)NS(=O)(=O)N3CCOCC3)cc21	1 to 500	1 to 500	
CCN1C[C@@H]2C[C@H]1CN2C(=O)c1cnn(C)c1C1=Cc2cc(OC)ccc2-c2c(C3CCCCC3)c3ccc(C(=O)NS(=O)(=O)N4CCOCC4)cc3n2C1	1 to 500	1 to 500	
COc1ccc2c(c1)C=C(c1c(C(=O)N3CCN(C)CC3)cnn1C)Cn1c-2c(C2CCCCC2)c2ccc(C(=O)NS(=O)(=O)N3CCOCC3)cc21	1 to 500	1 to 500	
COc1ccc2c(c1)C=C(c1c(C(=O)N3CCN(C(C)C)CC3)cnn1C)Cn1c-2c(C2CCCCC2)c2ccc(C(=O)NS(=O)(=O)N3CCOCC3)cc21	1 to 500	1 to 500	
COc1ccc2c(c1)C=C(c1c(C(=O)N3CCCC(N(C)C)C3)cnn1C)Cn1c-2c(C2CCCCC2)c2ccc(C(=O)NS(=O)(=O)N3CCOCC3)cc21 (stereo not drawn)	1 to 500	1 to 500	
COc1ccc2c(c1)C=C(c1c(C(=O)N3CCCC4(CCNC4=O)C3)cnn1C)Cn1c-2c(C2CCCCC2)c2ccc(C(=O)NS(=O)(=O)N3CCOCC3)cc21 (stereo not drawn)	1 to 500	1 to 500	
COc1ccc2c(c1)C=C(c1c(C(=O)N3CCCC3CN3CCCCC3)cnn1C)Cn1c-2c(C2CCCCC2)c2ccc(C(=O)NS(=O)(=O)N3CCOCC3)cc21 (stereo not drawn)	1 to 500	1 to 500	
CCOC(=O)N1CCN(C(=O)c2cnn(C)c2C2=Cc3cc(OC)ccc3-c3c(C4CCCCC4)c4ccc(C(=O)NS(=O)(=O)N5CCOCC5)cc4n3C2)CC1	1 to 500	1 to 500	
CCn1nc(C)c(C(=O)N2C[C@@H](C)O[C@@H](C)C2)c1C1=Cc2cc(OC)ccc2-c2c(C3CCCCC3)c3ccc(C(=O)NS(=O)(=O)C(C)C)cc3n2C1 [drawing 580]	1 to 500	1 to 500	
CCn1nc(C)c(C(=O)N2C[C@@H](C)O[C@@H](C)C2)c1C1=Cc2cc(OC)ccc2-c2c(C3CCCCC3)c3ccc(C(=O)NS(=O)(=O)C(C)C)cc3n2C1 [drawing 627]	1 to 500		1 to 500
